Data taken from US5480905A, “Benzodioxane derivatives” (Chugai Seiyaku Kabushiki Kaisha, priority 1991, dated 1996).
“Also recorded” adds a separate entry of the source.

Assays:
[1] = test system: S.D. line male rats; experiment: Sedative action, amount of spontaneous movement (Animex); assay type: in vivo, rat; conditions: for Amount of Spontaneous Movement: control 405.2 ± 47.7; for Sedative action / spontaneous movement: peroral 20-60 mg/kg
Protocol: Seven-week old male S.D. line rats were administered a test drug perorally and after the passage of 30 min, the amount of spontaneous movement of the rats was measured for 10 min by means of Animex.

[2] = target: T1, serotonin 1A receptor (Rattus norvegicus, UniProt P19327); experiment: Serotonin 1A receptor binding experiment (3H-8-OH-DPAT); conditions: rat cortex and hippocampal tissue; 0.5 nM 3H-8-OH-DPAT; IC50 in M; read-out: -logIC50 5-HT1A (converted)
T1 construct: the cortex and hippocampal tissue were extracted from the brain; from tissue; host or cells: brain cortex and hippocampus of 7-week-old male S.D. rats, washed membrane homogenate
T1 sequence (P19327 1-422): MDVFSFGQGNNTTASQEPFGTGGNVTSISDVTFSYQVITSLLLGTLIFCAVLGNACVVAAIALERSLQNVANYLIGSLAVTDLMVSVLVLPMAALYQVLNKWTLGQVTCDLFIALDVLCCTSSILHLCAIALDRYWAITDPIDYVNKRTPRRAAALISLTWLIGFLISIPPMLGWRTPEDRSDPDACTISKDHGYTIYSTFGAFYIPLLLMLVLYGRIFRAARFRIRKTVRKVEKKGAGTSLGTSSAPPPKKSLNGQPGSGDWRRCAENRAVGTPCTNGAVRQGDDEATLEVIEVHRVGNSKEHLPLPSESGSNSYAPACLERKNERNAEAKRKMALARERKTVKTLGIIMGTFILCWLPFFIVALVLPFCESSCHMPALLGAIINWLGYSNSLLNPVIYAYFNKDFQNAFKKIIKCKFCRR

[3] = test system: S.D. line male rats; experiment: Antidepressant effect, compelled swim test (Porsolt), time over which rats remain motionless; assay type: in vivo, rat; set-up: Antidepressant effect / Antidepressant effect, longevity: scale not given here; conditions: for inhibition in vivo at 20 mg/kg / ED50: Rattus norvegicus, po, 0.5 h; for inhibition in vivo at 20 mg/kg: 30 min before swim, read-out: Antidepressant effect, Efficacy; for ED50: peroral, probit method, read-out: ED50, dose reducing motionless time by one half vs control
Protocol: An antidepression test was conducted in accordance with the method of Porsolt et al. (Europ. J. Pharmacol., 47, 379-391, 1978). Stated more specifically, 7-wk old S.D. line male rats were placed in a glass cylinder (18 cm^.phi. ×40 cm^H) for 15 min. The cylinder was filled with water (25° C.) to a depth of 15 cm. Thereafter, the rats were placed in a hot environment (32° C.) for 15 min before they were returned to the cage. Twenty-four hours later, the rats were compelled again to swim in the same cylinder for 5 min and the total time over which the rats remained motionless was measured. A test drug was administered perorally to each animal 30 min before it was compelled to swim for 5 min. Antidepressant agents are known to be capable of specifically reducing the time over which the rats would remain motionless (Psyehopharmaeol., 83, 1-16, 1984, and ibid., 94, 147-160, 1988). The antidepressant effect was calculated by the following formula: [formula]
The procedure of Test Examples 2 and 3 were repeated except that test compounds were administered perorally in a dose of 10 mg/kg.
The procedures of Test Example 2 and 3 were repeated, except that test compounds were administered perorally in a dose of 20 mg/kg to check the longevity of their antianxiety and antidepressant effects for 0.5, 2 and 4 h.

[4] = test system: apomorphine induced stereotypic behavior; experiment: Antidopamine action, apomorphine induced stereotypic behavior; assay type: in vivo, rat; conditions: for Apomorphine Induced Stereotypic Behavior, sum of scores: maximum of 24; for Antidopamine action: peroral, apomorphine 0.5 mg/kg s.c.
Protocol: Seven-week old male S.D. line rats were administered a test drug perorally and after the passage of 30 min, the dopamine agonist apomorphine was injected subcutaneously in an amount of 0.5 mg/kg. For the subsequent 5-30 min period, the intensity of stereotypic behavior that was induced in the rats by apomorphine was measured six times at 5-min intervals by a scoring method and the sum of the scores was determined (for a maximum of 24).

[5] = target: T2, serotonin 2 receptor (Rattus norvegicus, UniProt P14842); experiment: Serotonin 2 receptor binding experiment (3H-ketancerine); conditions: rat cortex and hippocampal tissue; 0.5 nM 3H-ketancerine; IC50 in M; read-out: -logIC50 5-HT2 (converted)
T2 construct: the cortex and hippocampal tissue were extracted from the brain; from tissue; host or cells: brain cortex and hippocampus of 7-week-old male S.D. rats, washed membrane homogenate
Procedure, shortened: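 Membranes were prepared from cortex and hippocampus of 7-week male SD rats in 50 mM Tris-HCl pH 7.7 and preincubated 20 min at 37 °C to remove endogenous serotonin.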

[6] = peroral 20 mg/kg, 0.5 h after administration
[7] = peroral 20 mg/kg, 2.0 h after administration
[8] = peroral 20 mg/kg, 4.0 h after administration
[9] = 20 mg/kg peroral, control 14.4 ± 0.9 (Comp. 1: 16.0 ± 1.1)

T2 sequence (P14842 whole entry): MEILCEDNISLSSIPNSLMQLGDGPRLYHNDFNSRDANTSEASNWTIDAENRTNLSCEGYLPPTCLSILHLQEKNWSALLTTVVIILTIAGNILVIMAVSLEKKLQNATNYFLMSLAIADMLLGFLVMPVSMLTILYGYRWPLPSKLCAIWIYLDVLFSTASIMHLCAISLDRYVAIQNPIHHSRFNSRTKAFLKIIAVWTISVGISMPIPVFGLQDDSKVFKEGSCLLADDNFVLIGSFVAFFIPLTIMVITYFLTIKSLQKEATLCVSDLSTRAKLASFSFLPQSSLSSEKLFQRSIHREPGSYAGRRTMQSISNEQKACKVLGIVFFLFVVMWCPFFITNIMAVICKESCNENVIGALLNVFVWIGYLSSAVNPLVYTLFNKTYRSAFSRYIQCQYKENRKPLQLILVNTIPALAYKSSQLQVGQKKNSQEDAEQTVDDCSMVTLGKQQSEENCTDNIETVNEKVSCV

| Structure (SMILES) | Amount of Spontaneous Movement ([1]; 20 mg/kg peroral) | Amount of Spontaneous Movement ([1]; 40 mg/kg peroral) | Amount of Spontaneous Movement ([1]; 60 mg/kg peroral) | Sedative action / spontaneous movement [1] | IC50 [2] | inhibition in vivo at 20 mg/kg ([3]; peroral 20 mg/kg) | ED50 [3] | Antidepressant effect ([3]; peroral 10 mg/kg) | Antidepressant effect ([3]; peroral 20 mg/kg) | Antidepressant effect, longevity [3, 6] | Antidepressant effect, longevity [3, 7] | Antidepressant effect, longevity [3, 8] | Antidepressant activity relative to WY-50324 (ED50) ([3]; ratio of ED50) | Apomorphine Induced Stereotypic Behavior, sum of scores [4, 9] | Antidopamine action [4] | IC50 [5] | Apomorphine Induced Stereotypic Behavior, sum of scores ([4]; 10 mg/kg peroral, control 14.4 ± 0.9) | Apomorphine Induced Stereotypic Behavior, sum of scores ([4]; 40 mg/kg peroral, control 14.4 ± 0.9) |
| --- | --- | --- | --- | --- | --- | --- | --- | --- | --- | --- | --- | --- | --- | --- | --- | --- | --- | --- |
| Cc1cccc2c1OC(CNCCNC(=O)C13CC4CC(CC(C4)C1)C3)CO2 (stereo not shown) [Compound 1, N-{[2-(8-methyl-1,4-benzodioxan-2-ylmethyl)amino]ethyl}tricyclo[3,3,1,1^3, ^7]decane-1-carboxyamide] | 442.0 Counts/10 min | 401.8 Counts/10 min | 319.4 Counts/10 min | no appreciable sedative action | 1.17 nM | 72 ± 5.5% | 8.1 mg/kg | 66.7 ± 12.6 | better antidepressant effects than WY-50324 | 71.8 | 73.9 | 40.7 | three times the activity of WY-50324 | 14.7 | no effect at all when it was used in a dose of 20 mg/kg; also recorded: no antidopamine action | 30.2 nM |  |  |
| O=C(NCCN1CCN(c2ncccn2)CC1)C12CC3CC(CC(C3)C1)C2 [WY-50324, reference compound] | 315.5 Counts/10 min | 361.9 Counts/10 min | 401.6 Counts/10 min | no appreciable sedative action | 1.26 nM | 58.1 ± 5% | 24.3 mg/kg |  |  | 56.7 | 17.3 | 0.7 |  | 12.1 | showed an inhibitory action in high doses | 200 nM | 14.7 | 10.9 |
